Earlier results, collected in PubChem BioAssay AID1259409 (Chemical Carcinogenesis Research Information System (CCRIS), 2018).

System: rodent chemically induced tumor inhibition, incidence and multiplicity
Test: CCRIS tumor inhibitor studies
Text: The CCRIS database contains chemical records with carcinogenicity, mutagenicity, tumor promotion, and tumor inhibition test results. It was developed by the National Cancer Institute (NCI). Data are derived from studies cited in primary journals, current awareness tools, NCI reports, and other sources. Test results have been reviewed by experts in carcinogenesis and mutagenesis.
CCRIS provides historical information from the years 1985 - 2011. It is no longer updated.
This is an archive assay for CCRIS tumor inhibitor studies.

**Q.** Which “tumour outcome (control, treated, inhibition, significance)” value (Carcinogen: 4-(METHYLNITROSAMINO)-1-(3-PYRIDYL)-1-BUTANONE, 64091-91-4, Dose [Inhibitor]: 0, 1 UMOL/G DIET FOR DURATION OF STUDY BEGINNING 1 WK PRIOR TO CARCINOGEN TREATMENT (STUDY DURATION: 112 WK), Route [Inhibitor]: ORAL, Species: RAT, Strain/Sex: F344/MALE, Target Tissue: Type of Lesion: PANCREAS: ACINAR ADENOMA, Dose [Carcinogen]: 2 PPM IN DRINKING WATER FOR 111 WK, Promoter: NONE USED) does the source give for S=C=NCCCCCCc1ccccc1 here?
**A.** The value was 1/52 (2%), 6/50 (12%), -500%, p=0.04.

**Q.** What about the “tumour outcome (control, treated, inhibition, significance)” value (Carcinogen: 4-(METHYLNITROSAMINO)-1-(3-PYRIDYL)-1-BUTANONE, 64091-91-4, Dose [Inhibitor]: 0, 1 UMOL/G DIET FOR DURATION OF STUDY BEGINNING 1 WK PRIOR TO CARCINOGEN TREATMENT (STUDY DURATION: 112 WK), Route [Inhibitor]: ORAL, Species: RAT, Strain/Sex: F344/MALE, Target Tissue: Type of Lesion: PANCREAS: MALIGNANT TUMOR, Dose [Carcinogen]: 2 PPM IN DRINKING WATER FOR 111 WK, Promoter: NONE USED) of the same molecule?
**A.** The value was 4/52 (8%), 1/50 (2%), 75%, not significant.

**Q.** What about the “tumour outcome (control, treated, inhibition, significance)” value (Carcinogen: 4-(METHYLNITROSAMINO)-1-(3-PYRIDYL)-1-BUTANONE, 64091-91-4, Dose [Inhibitor]: 0, 5 UMOL IN 0.1 ML CORN OIL ONCE 2 HR PRIOR TO CARCINOGEN DOSE (STUDY DURATION: 16 WK), Route [Inhibitor]: GAVAGE, Species: MOUSE, Strain/Sex: STRAIN-A/FEMALE, Target Tissue: Type of Lesion: LUNG: ADENOMA, Dose [Carcinogen]: 10 UMOL IN 0.1 ML SALINE ONCE, Promoter: NONE USED) of the same molecule?
**A.** Its value is 100%, 25%, 75%, p<0.01.

**Q.** What about the “tumour outcome (control, treated, inhibition, significance)” value (Carcinogen: 4-(METHYLNITROSAMINO)-1-(3-PYRIDYL)-1-BUTANONE, 64091-91-4, Dose [Inhibitor]: 0, 438 PPM IN DIET FOR 22 WK BEGINNING 1 WK PRIOR TO CARCINOGEN DOSE (STUDY DURATION: 98 WK), Route [Inhibitor]: ORAL, Species: RAT, Strain/Sex: F344/MALE, Target Tissue: Type of Lesion: NASAL CAVITY: TUMOR, Dose [Carcinogen]: 1.5 MG/KG BW 3/WK FOR 20 WK, Promoter: NONE USED) of the same molecule?
**A.** Its value is 28/36 (78%), 27/36 (75%), 4%, not significant.

**Q.** What about the “tumour outcome (control, treated, inhibition, significance)” value (Carcinogen: 4-(METHYLNITROSAMINO)-1-(3-PYRIDYL)-1-BUTANONE, 64091-91-4, Dose [Inhibitor]: 0, 438 PPM IN DIET FOR 22 WK BEGINNING 1 WK PRIOR TO CARCINOGEN TREATMENT (STUDY DURATION: 98 WK), Route [Inhibitor]: ORAL, Species: RAT, Strain/Sex: F344/MALE, Target Tissue: Type of Lesion: LUNG: TUMOR, Dose [Carcinogen]: 1.5 MG/KG BW 3/WK FOR 20 WK, Promoter: NONE USED) of the same molecule?
**A.** The value was 22/33 (67%), 7/36 (19%), 72%, p<0.01.

**Q.** What about the “tumour outcome (control, treated, inhibition, significance)” value (Carcinogen: 4-(METHYLNITROSAMINO)-1-(3-PYRIDYL)-1-BUTANONE, 64091-91-4, Dose [Inhibitor]: 0, 876 PPM IN DIET FOR 22 WK BEGINNING 1 WK PRIOR TO CARCINOGEN TREATMENT (STUDY DURATION: 98 WK), Route [Inhibitor]: ORAL, Species: RAT, Strain/Sex: F344/MALE, Target Tissue: Type of Lesion: LUNG: TUMOR, Dose [Carcinogen]: 1.5 MG/KG BW 3/WK FOR 20 WK, Promoter: NONE USED) of the same molecule?
**A.** The value was 22/33 (67%), 8/34 (24%), 64%, p<0.01.

**Q.** What about the “tumour outcome (control, treated, inhibition, significance)” value (Carcinogen: 4-(METHYLNITROSAMINO)-1-(3-PYRIDYL)-1-BUTANONE, 64091-91-4, Dose [Inhibitor]: 0, 876 PPM IN DIET FOR 22 WK BEGINNING 1 WK PRIOR TO CARCINOGEN TREATMENT (STUDY DURATION: 98 WK), Route [Inhibitor]: ORAL, Species: RAT, Strain/Sex: F344/MALE, Target Tissue: Type of Lesion: NASAL CAVITY: TUMOR, Dose [Carcinogen]: 1.5 MG/KG BW 3/WK FOR 20 WK, Promoter: NONE USED) of the same molecule?
**A.** The value was 28/36 (78%), 27/36 (75%), 4%, not significant.

**Q.** What about the “tumour outcome (control, treated, inhibition, significance)” value (Carcinogen: 4-(METHYLNITROSAMINO-1-(3-PYRIDYL)-1-BUTANONE, 64091-91-4, Dose [Inhibitor]: O, 0.2 UMOL 1/D FOR 4 D ADMINISTERED PRIOR TO CARCINOGEN TREATMENT (STUDY DURATION: 116 D), Route [Inhibitor]: GAVAGE, Species: MOUSE, Strain/Sex: STRAIN A, Target Tissue: Type of Lesion: LUNG: ADENOMA, Dose [Carcinogen]: 10 UMOL ONCE 2 HR AFTER FINAL DOSE OF INHIBITOR, Promoter: NONE USED) of the same molecule?
**A.** The value was 100%, 70%, 30%, p<0.05.

**Q.** What about the outcome (Carcinogen: BENZO[A]PYRENE, 50-32-8, Dose [Inhibitor]: 0, 5 UMOL IN ACETONE 4 HR PRIOR TO CARCINOGEN DOSE (STUDY DURATION: 20 WK), Route [Inhibitor]: DERMAL, Species: MOUSE, Strain/Sex: STRAIN-A/FEMALE, Target Tissue: Type of Lesion: SKIN: TUMOR, Dose [Carcinogen]: 0.1 UMOL IN ACETONE ONCE, Promoter: 12-O-TETRADECANOYLPHORBOL-13-ACETATE, 16561-29-8) of the same molecule?
**A.** Its outcome is 70%, 90%, 29%, not significant at 15 wk; 95%, 95%, 0%, not significant at 20 wk.

**Q.** And the “tumour outcome (control, treated, inhibition, significance)” value (Carcinogen: N-BUTYL-N(4-HYDROXYBUTYL)NITROSAMINE (3817-11-6), Dose [Inhibitor]: 0.5 UMOL/G IN DIET BEGINNING 1 WK BEFORE CARCINOGEN EXPOSURE (STUDY DURATION: 16 WK), Route [Inhibitor]: ORAL, Species: RAT, Strain/Sex: WISTAR/MALE, Target Tissue: Type of Lesion: URINARY BLADDER: PAPILLOMA, Dose [Carcinogen]: 0.025% IN DRINKING WATER FOR 15 WK, Promoter: NONE USED)?
**A.** The value was 38/40 (95%), 24/30 (80%), 16%, not significant.

**Q.** What about the “tumour outcome (control, treated, inhibition, significance)” value (Carcinogen: N-NITROSOMETHYLBENZYLAMINE [937-40-6], Dose [Inhibitor]: 0, 1 MMOL/KG DIET IMMEDIATELY POST LAST CARCINOGEN DOSE (STUDY DURATION: 25 WK), Route [Inhibitor]: ORAL, Species: RAT, Strain/Sex: F344/MALE, Target Tissue: Type of Lesion: ESOPHAGUS: TUMOR, Dose [Carcinogen]: 0.5 MG/KG BW IN 20% DMSO 3 TIMES/WK FOR 5 WK (STUDY DURATION: 25 WK), Promoter: NONE) of the same molecule?
**A.** The value was 100%, 100%, 0%, not significant.

**Q.** And the “tumour outcome (control, treated, inhibition, significance)” value (Carcinogen: N-NITROSOMETHYLBENZYLAMINE [937-40-6], Dose [Inhibitor]: 0, 2.5 MMOL/KG DIET IMMEDIATELY POST LAST CARCINOGEN DOSE (STUDY DURATION: 25 WK), Route [Inhibitor]: ORAL, Species: RAT, Strain/Sex: F344/MALE, Target Tissue: Type of Lesion: ESOPHAGUS: TUMOR, Dose [Carcinogen]: 0.5 MG/KG BW IN 20% DMSO 3 TIMES/WK FOR 5 WK (STUDY DURATION: 25 WK), Promoter: NONE)?
**A.** The value was 100%, 100%, 0%, not significant.
